Data as given in patent US9469631B2 (Boehringer Ingelheim International GmbH, priority 2012, dated 2016).

How the values were obtained:
[1] = molecular target: mutant form of the human GPR119 receptor (Homo sapiens (Human), UniProt Q8TDV5, S329A/T327A); assay: LANCE cAMP-384 assay in HEK293 cells stably expressing a mutant form of human GPR119; format: cell-based; conditions: 20 min at 37° C.
human GPR119 = human GPR119 (Homo sapiens (Human), UniProt Q8TDV5); assay: AlphaScreen cAMP assay in MIN6 cells stably transfected with human GPR119; format: cell-based; conditions: Min-6/hGPR119 cells, 45 min incubation at room temperature
Chain of human GPR119 (Q8TDV5 whole entry): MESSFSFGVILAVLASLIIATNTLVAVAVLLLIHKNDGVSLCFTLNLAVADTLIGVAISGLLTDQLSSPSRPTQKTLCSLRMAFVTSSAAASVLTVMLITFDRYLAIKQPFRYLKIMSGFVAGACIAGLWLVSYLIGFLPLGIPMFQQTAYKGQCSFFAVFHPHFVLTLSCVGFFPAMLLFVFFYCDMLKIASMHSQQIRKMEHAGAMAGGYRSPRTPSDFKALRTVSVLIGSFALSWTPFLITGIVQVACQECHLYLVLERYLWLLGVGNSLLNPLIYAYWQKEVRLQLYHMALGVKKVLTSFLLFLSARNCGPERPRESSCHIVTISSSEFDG
How it was run: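 MIN6 cells stably expressing human GPR119 were seeded at 10000 cells/well for 24 h. Compounds were then applied in pH 7.4 buffer with 0.5 mM IBMX, 0.1% BSA and 1% DMSO for 45 min at about 20 °C. Intracellular cAMP was measured by AlphaScreen.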

Chain of mutant form of the human GPR119 receptor (Q8TDV5 other isoform, or with tags, fused parts or gaps T327A/S329A): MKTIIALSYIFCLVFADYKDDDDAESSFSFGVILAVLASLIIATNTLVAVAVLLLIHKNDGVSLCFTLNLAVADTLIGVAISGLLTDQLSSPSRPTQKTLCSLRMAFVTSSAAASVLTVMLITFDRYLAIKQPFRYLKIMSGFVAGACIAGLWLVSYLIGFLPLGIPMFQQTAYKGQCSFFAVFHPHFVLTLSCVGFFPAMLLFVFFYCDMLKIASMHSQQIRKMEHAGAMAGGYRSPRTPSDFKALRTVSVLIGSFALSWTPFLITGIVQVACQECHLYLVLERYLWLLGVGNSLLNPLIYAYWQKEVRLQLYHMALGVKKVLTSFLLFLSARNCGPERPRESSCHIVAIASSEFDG

Structure (SMILES) | EC50 (human GPR119) [nM] | EC50 [1] [nM]
Cc1nccn1-c1ccc(C(=O)N(C2CC2)C2CCN(C(=O)OC(C)C)CC2)cc1 [Example 51, 4-{Cyclopropyl-[4-(2-methyl-imidazol-1-yl)-benzoyl]-amino}-piperidine-1-carboxylic acid isopropyl ester] | – | 1580
CC(C)OC(=O)N1CCC(N(C(=O)c2ccc(-n3cncn3)c(F)c2)C2CC2)CC1 [Example 49, 4-[Cyclopropyl-(3-fluoro-4-[1,2,4]triazol-1-yl-benzoyl)-amino]-piperidine-1-carboxylic acid isopropyl ester] | – | 338
CC(C)(C)OC(=O)N1CCC(N(C(=O)c2ccc(-c3ccc(C#N)nc3)cc2)C2CC2)CC1 [Example 100, 4-{[4-(6-Cyano-pyridin-3-yl)-benzoyl]-cyclopropyl-amino}-piperidine-1-carboxylic acid tert-butyl ester] | 34 | –
CC(C)(C)OC(=O)N1CCC(N(C(=O)c2ccc(-c3ccc(C#N)cc3)cc2)C2CC2)CC1 [Example 54, 4-[(4′-Cyano-biphenyl-4-carbonyl)-cyclopropyl-amino]-piperidine-1-carboxylic acid tert-butyl ester] | 84 | –
CC(C)OC(=O)N1CC[C@@H](N(C(=O)c2ccc(-n3cncn3)c(F)c2)C2CC2)[C@@H](F)C1 (single isomer, unassigned) [Example 50] | – | 1020
CC(C)OC(=O)N1CC[C@H](N(C(=O)c2ccc(-n3cncn3)c(F)c2)C2CC2)[C@H](F)C1 (single isomer, unassigned) [Example 48] | – | 42
Cc1ncc(-c2ccc(C(=O)N(C3CC3)C3CCN(C(=O)OC(C)(C)C)CC3)cc2)o1 [Example 43, 4-{Cyclopropyl-[4-(2-methyl-oxazol-5-yl)-benzoyl]-amino}-piperidine-1-carboxylic acid tert-butyl ester] | 149 | –
CC(C)OC(=O)N1CCC(N(C(=O)c2ccc(-c3ccc(C(N)=O)cc3)cc2)C2CC2)CC1 [Example 129, 4-[(4′-Carbamoyl-biphenyl-4-carbonyl)-cyclopropyl-amino]-piperidine-1-carboxylic acid isopropyl ester] | 113 | –
CC(C)(C)OC(=O)N1CCC(N(C(=O)c2ccc(-c3ccncc3C#N)c(F)c2)C2CC2)CC1 [Example 34, 4-{[4-(3-Cyano-pyridin-4-yl)-3-fluoro-benzoyl]-cyclopropyl-amino}-piperidine-1-carboxylic acid tert-butyl ester] | 21 | –
CC(C)(C)OC(=O)N1CCC(N(C(=O)c2ccc(-c3cocn3)cc2)C2CC2)CC1 [Example 44, 4-[Cyclopropyl-(4-oxazol-4-yl-benzoyl)-amino]-piperidine-1-carboxylic acid tert-butyl ester] | 298 | –
Cc1cn(-c2ccc(C(=O)N(C3CC3)C3CCN(C(=O)OC(C)(C)C)CC3)cc2)c(C)n1 [Example 55, 4-{Cyclopropyl-[4-(2,4-dimethyl-imidazol-1-yl)-benzoyl]-amino}-piperidine-1-carboxylic acid tert-butyl ester] | 927 | –
C=CCOC(=O)N1CCC(N(C(=O)c2ccc(-c3cnco3)cc2)C2CC2)CC1 [Example 127, 4-[Cyclopropyl-(4-oxazol-5-yl-benzoyl)-amino]-piperidine-1-carboxylic acid allyl ester] | 102 | –
CC(C)(C)OC(=O)N1CCC(N(C(=O)c2cc(F)c(-c3cnco3)c(F)c2)C2CC2)CC1 [Example 33, 4-[Cyclopropyl-(3,5-difluoro-4-oxazol-5-yl-benzoyl)-amino]-piperidine-1-carboxylic acid tert-butyl ester] | 9 | –
CCOC(=O)N1CCC(N(C(=O)c2ccc(-c3cnco3)cc2)C2CC2)CC1 [Example 117, 4-[Cyclopropyl-(4-oxazol-5-yl-benzoyl)-amino]-piperidine-1-carboxylic acid ethyl ester] | 222 | –
O=C(Oc1ccccc1)N1CCC(N(C(=O)c2ccc(-c3cnco3)cc2)C2CC2)CC1 [Example 124, 4-[Cyclopropyl-(4-oxazol-5-yl-benzoyl)-amino]-piperidine-1-carboxylic acid phenyl ester] | 88 | –

More lines, in order of falling EC50 (human GPR119), values ahead:

EC50 (human GPR119) [nM] | Structure (SMILES) | EC50 [1] [nM]
1770 | CC1(OC(=O)N2CCC(N(C(=O)c3ccc(-c4ccc(S(C)(=O)=O)cn4)cc3)C3CC3)CC2)CC1 [Example 19, 4-{Cyclopropyl-[4-(5-methanesulfonyl-pyridin-2-yl)-benzoyl]-amino}-piperidine-1-carboxylic acid 1-methyl-cyclopropyl ester] | –
1740 | CN(C)Cc1ccc(-c2ccc(C(=O)N(C3CC3)C3CCN(C(=O)OC(C)(C)C)CC3)cc2)cc1 [Example 112, 4-[Cyclopropyl-(4′-dimethylaminomethyl-biphenyl-4-carbonyl)-amino]-piperidine-1-carboxylic acid tert-butyl ester] | –
886 | CC(=O)Nc1nc(-c2ccc(C(=O)N(C3CC3)C3CCN(C(=O)OC(C)(C)C)CC3)cc2)ns1 [Example 74, 4-{[4-(5-Acetylamino-[1,2,4]thiadiazol-3-yl)-benzoyl]-cyclopropyl-amino}-piperidine-1-carboxylic acid tert-butyl ester] | –
402 | CNC(=O)Nc1nnc(-c2ccc(C(=O)N(C3CC3)C3CCN(C(=O)OC(C)(C)C)CC3)cc2)s1 [Example 82, 4-(Cyclopropyl-{4-[5-(3-methyl-ureido)-[1,3,4]thiadiazol-2-yl]-benzoyl}-amino)-piperidine-1-carboxylic acid tert-butyl ester] | –
332 | CC(C)(C)OC(=O)N1CCC(N(C(=O)c2ccc(-c3nccs3)cc2)C2CC2)CC1 [Example 59, 4-[Cyclopropyl-(4-thiazol-2-yl-benzoyl)-amino]-piperidine-1-carboxylic acid tert-butyl ester] | –
316 | CCOc1ccc(-c2ccc(C(=O)N(C3CC3)C3CCN(C(=O)OC(C)(C)C)CC3)cc2)cn1 [Example 109, 4-{Cyclopropyl-[4-(6-ethoxy-pyridin-3-yl)-benzoyl]-amino}-piperidine-1-carboxylic acid tert-butyl ester] | –
278 | CC(C)(C)OC(=O)N1CCC(N(C(=O)c2ccc(-n3cccc3)cc2)C2CC2)CC1 [Example 64, 4-[Cyclopropyl-(4-pyrrol-1-yl-benzoyl)-amino]-piperidine-1-carboxylic acid tert-butyl ester] | –
228 | CC(C)(C)OC(=O)N1CCC(N(C(=O)c2ccc(-c3ccoc3)cc2)C2CC2)CC1 [Example 90, 4-[Cyclopropyl-(4-furan-3-yl-benzoyl)-amino]-piperidine-1-carboxylic acid tert-butyl ester] | –
214 | CC(C)(C)OC(=O)N1CCC(N(C(=O)c2ccc(-c3cccs3)cc2)C2CC2)CC1 [Example 58, 4-[Cyclopropyl-(4-thiophen-2-yl-benzoyl)-amino]-piperidine-1-carboxylic acid tert-butyl ester] | –
174 | CC(C)(C)OC(=O)N1CC[C@H](N(C(=O)c2ccc(-c3cnco3)cc2)C2CC2)[C@@H](F)C1 (single isomer, unassigned) [Example 38] | –
111 | CNS(=O)(=O)c1ccc(-c2ccc(C(=O)N(C3CC3)C3CCN(C(=O)OC(C)(C)C)CC3)cc2)cc1 [Example 111, 4-[Cyclopropyl-(4′-methylsulfamoyl-biphenyl-4-carbonyl)-amino]-piperidine-1-carboxylic acid tert-butyl ester] | –
85 | Cc1noc(C)c1-c1ccc(C(=O)N(C2CC2)C2CCN(C(=O)OC(C)(C)C)CC2)cc1 [Example 95, 4-{Cyclopropyl-[4-(3,5-dimethyl-isoxazol-4-yl)-benzoyl]-amino}-piperidine-1-carboxylic acid tert-butyl ester] | –
81 | Cc1cc(C(=O)N(C2CC2)C2CCN(C(=O)OC(C)(C)C)CC2)ccc1-c1cnco1 [Example 24, 4-[Cyclopropyl-(3-methyl-4-oxazol-5-yl-benzoyl)-amino]-piperidine-1-carboxylic acid tert-butyl ester] | –
80 | CCCOC(=O)N1CCC(N(C(=O)c2ccc(-c3cnco3)cc2)C2CC2)CC1 [Example 123, 4-[Cyclopropyl-(4-oxazol-5-yl-benzoyl)-amino]-piperidine-1-carboxylic acid propyl ester] | –
74 | CC(C)(C)OC(=O)N1CCC(N(C(=O)c2ccc(-c3ccc(S(C)(=O)=O)cn3)cc2)C2CC2)CC1 [Example 21, 4-{Cyclopropyl-[4-(5-methanesulfonyl-pyridin-2-yl)-benzoyl]-amino}-piperidine-1-carboxylic acid tert-butyl ester] | –
51 | CCNC(=O)c1ccc(-c2ccc(C(=O)N(C3CC3)C3CCN(C(=O)OC(C)(C)C)CC3)cc2)cc1 [Example 103, 4-[Cyclopropyl-(4′-ethylcarbamoyl-biphenyl-4-carbonyl)-amino]-piperidine-1-carboxylic acid tert-butyl ester] | –
45 | CC(C)COC(=O)N1CCC(N(C(=O)c2ccc(-c3cnco3)cc2)C2CC2)CC1 [Example 125, 4-[Cyclopropyl-(4-oxazol-5-yl-benzoyl)-amino]-piperidine-1-carboxylic acid isobutyl ester] | –
10 | CC(C)(OC(=O)N1CCC(N(C(=O)c2ccc(-c3cnco3)cc2)C2CC2)CC1)C(F)(F)F [Example 130, 4-[Cyclopropyl-(4-oxazol-5-yl-benzoyl)-amino]-piperidine-1-carboxylic acid 2,2,2-trifluoro-1,1-dimethyl-ethyl ester] | –
